In patent US20230382888A1, “HDAC INHIBITOR SOLID STATE FORMS” (Viracta Subsidiary, Inc., priority 2020, published 2023):
Entries after “also recorded” stand apart in the source; their conditions may differ.

How the values were obtained:
[1] = format: physicochemical
From the text: There was insufficient residue to characterize these further.

[2] = Gravimetric vapour sorption (GVS); format: physicochemical; details: for XRPD post-GVS (solid form): residue after GVS
Method: Sorption isotherms were obtained using a SMS DVS Intrinsic moisture sorption analyser, controlled by DVS Intrinsic Control software. The sample temperature was maintained at 25° C. by the instrument controls. The humidity was controlled by mixing streams of dry and wet nitrogen, with a total flow rate of 200 ml/min. The relative humidity was measured by a calibrated Rotronic probe (dynamic range of 1.0 — 100% RH), located near the sample. The weight change, (mass relaxation) of the sample as a function of % RH was constantly monitored by a microbalance (accuracy ±0.005 mg). Typically, 20-30 mg of sample was placed in a tared mesh stainless steel basket under ambient conditions. The sample was loaded and unloaded at 40% RH and 25° C. (typical room conditions). A moisture sorption isotherm was performed as outlined below (2 scans per complete cycle). The standard isotherm was performed at 25° C. at 10% RH intervals over a 0-90% RH range. Typically, a double cycle (4 scans) was carried out. Data analysis was carried out within Microsoft Excel using the DVS Analysis Suite. [table]

[3] = Static storage stability at elevated temperature/humidity (XRPD, HPLC); format: physicochemical
[4] = Thermodynamic aqueous solubility; format: physicochemical; details: for pH of saturated solution: water, after 24 hours equilibration at 25° C.
Method: Aqueous solubility was determined by suspending sufficient compound in 0.5 ml deionized water to give a maximum final concentration of 40 mg/ml of the parent free-form of the compound. The suspension was equilibrated at 25° C., on a Heidolph plate shaker set to 750 rpm for 24 hours. After equilibration, the appearance was noted and the pH of the saturated solution was measured. Samples forming suspensions were centrifuged for 4 min at 13,500 rpm. Samples were then filtered through a glass fiber C filter (particle retention 1.2 μm), before dilution with H2 O as appropriate. Quantitation was by HPLC (see Table 2 for parameters) with reference to a standard solution of approximately 0.15 mg/ml in DMSO. Different volumes of the standard, diluted and undiluted sample solutions were injected. The solubility was calculated using the peak areas determined by integration of the peak found at the same retention time as the principal peak in the standard injection. Analysis was performed on an Agilent HP1100/Infinity II 1260 series system equipped with a diode array detector and using OpenLAB software.

[5] = Intrinsic dissolution rate (IDR) in FaSSGF; format: physicochemical
[6] = Competitive slurries in different water activity (thermodynamic stability); format: physicochemical
Method: Competitive slurries of the anhydrous and hydrated forms in different water activity at 50° C. and 5° C. were used to determine the thermodynamic stability relationships.

SMILES | Solubility residue (solid form) [1] | XRPD post-GVS (solid form) [2] | HPLC purity after static storage ([3]; 25° C./97% RH, 1 week) | Solid form by XRPD after static storage ([3]; 25° C./97% RH, 7 days (1 week)) | HPLC purity after static storage ([3]; 40° C./75% RH, 1 week) | Solid form by XRPD after static storage ([3]; 40° C./75% RH, 7 days (1 week)) | Hygroscopicity by GVS ([2]; 25° C.) | further results
O=C(NO)c1cnc(N2C[C@@H]3[C@H](C2)[C@H]3NCc2ccc3cc(F)ccc3n2)nc1 [Mesylate Form 3, N-hydroxy 2-{6-[(6-fluoro-quinolin-2-ylmethyl)-amino]-3-aza-bicyclo[3.1.0]hex-3-yl}pyrimidine-5-carboxamide] | new solubility residue patterns | XRPD Post-GVS: Poorly crystalline broad reflections may match | 96.6% | remained unchanged; also recorded: Mesylate Form 3 | 97.0% | conversion to the sesquihydrate Mesylate Form 5 | – | Water loss, desorption cycle 1 ([2]; 30-20% RH): Desorption Cycle 1 22% water loss from 30-20% RH; Water uptake, first sorption cycle ([2]; 40-90% RH): 2%; Water content on desorption cycle 1 ([2]; at 30% RH): 24.3%; Starting water content in GVS ([2]; at 40% RH): 25.1%; Solid form by XRPD after static storage ([3]; 25° C./97% RH, 7 days (1 week), listed as Form 3): remained as Mesylate Form 3; Solid form by XRPD after static storage ([3]; 40° C./75% RH, 7 days (1 week), listed as Form 3): convert to Mesylate Form 5
O=C(NO)c1cnc(N2C[C@@H]3[C@H](C2)[C@H]3NCc2ccc3cc(F)ccc3n2)nc1 [Mesylate Form 5, N-hydroxy 2-{6-[(6-fluoro-quinolin-2-ylmethyl)-amino]-3-aza-bicyclo[3.1.0]hex-3-yl}pyrimidine-5-carboxamide] | new solubility residue patterns | remaining unchanged; also recorded: stable after GVS analysis; also recorded: XRPD Post-GVS: Mesylate Form 5 | 99.5% | remained as Mesylate Form 5; also recorded: Unchanged: Mesylate Form 5 | 99.5% | remained as Mesylate Form 5; also recorded: Unchanged: Mesylate Form 5 | hygroscopic | –
O=C(NO)c1cnc(N2C[C@@H]3[C@H](C2)[C@H]3NCc2ccc3cc(F)ccc3n2)nc1 [Mesylate Form 1, N-hydroxy 2-{6-[(6-fluoro-quinolin-2-ylmethyl)-amino]-3-aza-bicyclo[3.1.0]hex-3-yl}pyrimidine-5-carboxamide] | – | no change; also recorded: XRPD remains unchanged | no significant drop in purity | unchanged; also recorded: No change, Mesylate Form 1 | no significant drop in purity | unchanged; also recorded: No change, Mesylate Form 1 | Slightly hygroscopic | solubility at 24 h ([4]; thermodynamic from solid, deionized water, 25° C., 24 hours, maximum final concentration 40 mg/ml of parent free-form): 40 mg/mL; pH of saturated solution [4]: (pH = 3.2); pH of saturated solution ([4]; listed as mesylate): ~3.2; Reversible water uptake by GVS ([2]; 0-90% RH, 25° C.): 0.35% reversible uptake from 0-90%; HPLC purity after static storage ([3]; 25° C./97% RH, 14 weeks): 93.5%; Solid form by XRPD after static storage ([3]; 25° C./97% RH, 14 weeks): Mesylate Form 1; HPLC purity after static storage ([3]; 40° C./75% RH, 14 weeks): Form 2 (94.7% purity); Solid form by XRPD after static storage ([3]; 40° C./75% RH, 14 weeks): Mixture of Mesylate Form 1 and Mesylate; IDR relative to free base form A ([5]; FaSSGF): ~8 times; IDR in FaSSGF ([5]; Fasted State Simulated Gastric Fluid): 9.1 mg/min/cm^2; Water activity (aw) up to which the form is the most stable ([6]; competitive slurries at 50° C.): 0.6; Water activity (aw) up to which the form is the most stable ([6]; competitive slurries at ° C. (so in the source)): ≥ 0.3
